Data as given in patent US6492137B1, “Response element compositions and assays employing same” (The Salk Institute for Biological Studies, priority 1989, dated 2002).

Assays:
[1] = biological target: T1, TRβ (Homo sapiens, UniProt P10828); test: ΔSV-CAT reporter cotransfection assay in CV-1 cells with TRβ expression plasmid, ±T3; assay type: cell-based; parameters: expressed in transfected cells; host or cells: CV-1 (monkey kidney); conditions: TRβ expression vector
T1 sequence (P10828 1-461): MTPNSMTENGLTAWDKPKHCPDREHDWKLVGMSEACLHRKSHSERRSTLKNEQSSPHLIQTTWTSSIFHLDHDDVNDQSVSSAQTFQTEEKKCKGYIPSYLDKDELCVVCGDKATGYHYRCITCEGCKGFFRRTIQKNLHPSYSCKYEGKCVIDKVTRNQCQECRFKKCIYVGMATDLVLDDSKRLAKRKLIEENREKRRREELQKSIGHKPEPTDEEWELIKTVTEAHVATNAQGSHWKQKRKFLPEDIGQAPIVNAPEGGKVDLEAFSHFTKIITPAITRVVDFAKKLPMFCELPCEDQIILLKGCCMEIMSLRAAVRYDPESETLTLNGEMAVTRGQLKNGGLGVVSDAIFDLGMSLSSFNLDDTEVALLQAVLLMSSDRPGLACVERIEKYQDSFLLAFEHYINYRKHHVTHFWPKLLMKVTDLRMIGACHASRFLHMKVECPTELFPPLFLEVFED
Excerpt: Receptor expression plasmids used in the following cotransfection assays have been described previously (pRShTRβ [see Thompson, et al., Proc. Natl. Acad. Sci. U.S.A. 86: 3494-3498 (1989)]; pRShRARα [see Giguere, et al., Nature 330: 624-629 (1987)]; pRShRARβ and pRshRARγ [see Ishikawa, et al., Mol. Endocrinol, 4: 837-844 (1990)]; and pRShVDR, [Schule, et al., Cell 61: 497-504 (1990)]. A basal reporter plasmid ΔSV-CAT was constructed by replacing the TK promoter in TK-CAT [Damm, et al., Nature 339: 593-597 (1989)] with the SphI-HindIII fragment of the SV40 early promoter. All of the recombinant CAT reporter plasmids used herein harbor a single copy of the indicated oligonucleotides at the unique HindIII site upstream of the SV40 promoter. […] To improve production of receptor proteins in COS cells, a new eukaryotic expression vector pCMX was prepared by modifying the plasmid CDM8 [Seed, B., Nature 329: 840-842 (1987)]. The CDM8 was cut with MluI and StuI in order to release the DNA fragment encoding the CMV/T7 promoter, SV40 small t intron/poly A signal, polyoma virus enhancer/origin, and SV40 enhancer/origin. The resulting fragment was ligated to a larger fragment of PvuII-digested PUC19. An internal deletion was introduced between unique BamHI and BclI sites present in the DCM8 portion. The stuffer sequence flanked by XbaI sites was replaced with a synthetic polylinker coding for 5′-KpnI/Asp718-EcoRV-BamHI -MscI-NheI-3′, followed by a stretch of 5′-[…]-3′ (SEQ ID NO:48) which can function as a universal termination signal for protein translation. The coding sequence of the luciferase [de Wet, et al., Mol. Cell. Biol. 7: 725-737 (1987)] and human TRβ, RARα, and VDR was placed in the polylinker region of the pCMX, generating pCMX-LUC, Pcmx-Htrβ, pCMX-hRARα, and pCMX-hVDR, respectively. The translation start site of the RARα was modified to […] by attaching the synthetic linker encoding a consensus translation start signal [Hollenberg, et al., Cell 55: 899-906 (1988)].
(§1) For cotransfection assays, a monkey kidney cell line CV-1 was kept in Dulbecco's modified Eagle's medium (DMEM) supplemented with 10% charcoal-resin double split calf bovine serum. Transfections were performed via calcium-phosphate precipitation method as described by Umesono, et al. in Cell 57: 1139-1146 (1989), with 0.5 μg of a pRS receptor expression plasmid, 1.0 μg of a reporter CAT plasmid, 5 μg of pRAS-βGAL [Umesono, et al., Cell 57: 1139-1146 (1989)] as an internal control, and 8.5 μg of carrier plasmid pUC19. The cells were transfected for 8 hours; after washing the DNA precipitates, the cells were then incubated for an additional 36 hours with or without the ligand (T3, 100 nM; RA, 1 μM; 1,25-(OH)2 vitamin D3, 100 nM). Cell extracts were prepared for βGAL and CAT assays, as described by Umesono, et al., supra. Transfection of F9 teratocarcinoma cells was carried out employing a similar method except the cells were incubated for 12 hours in the presence of the DNA precipitates, and the RA was added at 1 μM for another 24 hours before harvesting the cells. 2, 5, and 4 μg of the reporter, pRAS-βGAL, and pUC19 were used, respectively.
Target hormone response elements described in FIG. 3 were synthesized as double-stranded oligonucleotides with an overhanging tetranucleotide (5′-agct-3′) at both ends. A single copy of these oligonucleotides was cloned at the unique HindIII site present in the basal promoter CAT construct ΔSV-CAT. Capitalized portions in the nucleotide sequences correspond to those found in the natural promoters except TREp and rGH21, which are synthetic. Bold letters indicate the “AGGTCA” motif and “X” denotes a nucleotide substitution from this motif.

[2] = biological target: T1, TRβ; test: Gel retardation DNA-binding assay with TRβ-expressing COS cell extracts; parameters: expressed in transfected cells; host or cells: COS cells (whole-cell extract); conditions: for TRβ binding to labeled oligonucleotide probe: gel retardation, TRβ COS cell extract; for competition for TRβ binding to 32P-labeled MHC-N: 50-fold excess of unlabeled oligonucleotide, COS cell extracts
Description: For DNA binding assays, COS cells were cultured in DMEM with 10% calf bovine serum and transfected by the calcium phosphate method with 20 μg of the pCMX receptor expression plasmid for 6 hours followed by a glycerol shock. After incubating the transfected COS cells for another 48 hours, the cells were harvested to prepare extracts for the DNA binding assay, carried out as described by Damm et al., Nature 339: 593-597 (1989). The extracts were made in 20 mM HEPES (pH 7.4), 0.4 M KCl, 2 mM DTT and 20% glycerol. A similar method was employed to prepare a whole cell extract from F9 stem cells. For the binding, 5 μg (COS) or 10 μg (F9) of proteins was incubated on ice for 20 minutes, first in 20 mM HEPES, 80 mM KCl, 1 mM DTT, 0.1% NP40, 2.5 μg of poly dI/dC, and 10% glycerol (cold competitor oligonucleotides, when included, were added during this pre-incubation period). Then 40 fmole of ^32P-labeled oligonucleotide probe (1-2×10^5 cpm, prepared by filling-in reaction using Klenow polymerase in the presence of α-^32P-dCTP) was added to the reaction mixture, followed by incubation at room temperature for 30 minutes. The receptor-DNA complexes were resolved by electrophoresis through 5% polyacrylamide gel containing 5% glycerol at 6 V/cm at room temperature.
Oligonucleotides listed in FIG. 3 were used as a probe to test specific DNA-binding of the RARα and TRβ in a gel retardation assay.
Using the mobility shift assay, the DNA-binding capacity of extracts from COS cells expressing TRβ and RARα to these sequences was also tested.

[3] = test system: F9 teratocarcinoma stem cells; test: CAT reporter transfection into RA responsive F9 teratocarcinoma stem cells; assay type: cell-based, mouse; conditions: RA 1 μM, 24 hours; no transfected receptor
Description: as §1
Similarly, when the same set of reporters as in FIG. 4 were transfected into F9 cells, only MHC-R (5-nucleotide spacer) and TREp are potent RAREs. In contrast, its RARE antecedents (MHC-N, MHC+1, MHC-T) are inert.

Substance: rGH21: rat growth hormone gene sequence proposed as a candidate TRE (SEQ ID NO:20) (AGCTAGGTAAGATCAGGTAAGTAGCT; listed as DNA, chemistry not fully specified) [reference compound]
- T3 responsiveness (in words) [1]: fails to confer T3-dependent transactivation
- TRβ binding to labeled oligonucleotide probe [2]: binds very poorly

Substance: MHC+1: MHC-N with half-site spacing increased by one nucleotide (SEQ ID NO:22) (AGCTGGAGGTGAACAGGAGGACAGCAAGCT; DNA, backbone not given here; double-stranded response element with agct overhangs, cloned into reporter plasmid)
- function as RARE in F9 cells [3]: inert
- competition for TRβ binding (mobility shift assay) ([2]; unlabeled competitor oligonucleotide, COS cells expressing TRβ): poor competitors

Substance: MHC-D: segment of the MHC sequence including an adjacent sequence; deletion from MHC-L (SEQ ID NO:13) (AGCTTGAGGTGACAGGAGGACAGCAGCT; DNA, backbone not given here; double-stranded DNA response element with agct overhangs, cloned into reporter)
- T3 responsiveness (in words) [1]: recovery of the full response

Substance: M1: MHC-N with nucleotide substitutions in the proposed direct repeat motif (SEQ ID NO:15) (AGCTGGAAATGACAGGAGGACAGCAAGCT; DNA, backbone not given here; double-stranded DNA response element with agct overhangs, cloned into reporter)
- T3 responsiveness (in words) [1]: completely silent to T3
- competition for TRβ binding to 32P-labeled MHC-N [2]: did not

Substance: MHC-S: restricted region of MHC-L corresponding to the predicted palindrome (SEQ ID NO:12) (AGCTCTCTGGAGGTGACAGGAAGCT; listed as DNA, further chemistry not given here)
- T3 responsiveness (in words) [1]: failed to confer T3 responsiveness

Substance: M3: MHC-N with nucleotide substitutions in the proposed direct repeat motif (SEQ ID NO:17) (AGCTGGAGGTGACAGGAAAACAGCAAGCT; DNA, backbone not given here; double-stranded DNA response element with agct overhangs, cloned into reporter)
- T3 responsiveness (in words) [1]: completely silent to T3
- competition for TRβ binding to 32P-labeled MHC-N [2]: did not

Substance: MLV-LTR: thyroid response element found in the murine Maloney Leukemia Virus LTR (SEQ ID NO:19) (DNA AGCTCAGGGTCATTTCAGGTCCTTGAAGCT; listed as DNA, chemistry not given here) [reference compound]
- T3 responsiveness (in words) [1]: confers T3 inducibility
- TRβ binding to labeled oligonucleotide probe [2]: high affinity

Substance: M2: MHC-N mutant with nucleotide substitutions in the presumed palindrome (SEQ ID NO:16) (AGCTGGAGGTGACGAAAGGACAGCAAGCT; DNA, backbone not given here; double-stranded DNA response element with agct overhangs, cloned into reporter)
- T3 responsiveness (in words) [1]: retains a T3 response though impaired
- competition for TRβ binding to 32P-labeled MHC-N [2]: competed

Substance: MHC-L: wild-type MHC sequence encoding a TRE in the MHC gene promoter (SEQ ID NO:11) (AGCTCCTTGGCTCTGGAGGTGACAGGAGGACAGCAGCT; DNA, backbone not given here; double-stranded response element with agct overhangs, cloned into reporter plasmid)
- T3 responsiveness (in words) [1]: responsive to T3
